Test results reported in US20210134398A1, “Combinatorial Chemistry Computational System and Enhanced Selection Method” (Southern Methodist University, priority 2019, published 2021).
Entries after “also recorded” stand apart in the source; their conditions may differ. Where two headings read alike, the source gives them in different places.

Assays:
[1] = target: T1, P-gp-catalyzed transport of calcein AM in DU145TXR cells (Homo sapiens, UniProt P08183); test: Calcein AM accumulation assay; type: cell-based; details: without pre-incubation, compared to parental 29, 5 μM stated for Group 2
T1 construct: DU145 human prostate cancer cells^52 as well as the multidrug resistant sub-line, DU145TXR; endogenous in cells; host or cells: DU145TXR (paclitaxel-selected sub-line of human DU145 prostate cancer cells)
T1 sequence (P08183 whole entry): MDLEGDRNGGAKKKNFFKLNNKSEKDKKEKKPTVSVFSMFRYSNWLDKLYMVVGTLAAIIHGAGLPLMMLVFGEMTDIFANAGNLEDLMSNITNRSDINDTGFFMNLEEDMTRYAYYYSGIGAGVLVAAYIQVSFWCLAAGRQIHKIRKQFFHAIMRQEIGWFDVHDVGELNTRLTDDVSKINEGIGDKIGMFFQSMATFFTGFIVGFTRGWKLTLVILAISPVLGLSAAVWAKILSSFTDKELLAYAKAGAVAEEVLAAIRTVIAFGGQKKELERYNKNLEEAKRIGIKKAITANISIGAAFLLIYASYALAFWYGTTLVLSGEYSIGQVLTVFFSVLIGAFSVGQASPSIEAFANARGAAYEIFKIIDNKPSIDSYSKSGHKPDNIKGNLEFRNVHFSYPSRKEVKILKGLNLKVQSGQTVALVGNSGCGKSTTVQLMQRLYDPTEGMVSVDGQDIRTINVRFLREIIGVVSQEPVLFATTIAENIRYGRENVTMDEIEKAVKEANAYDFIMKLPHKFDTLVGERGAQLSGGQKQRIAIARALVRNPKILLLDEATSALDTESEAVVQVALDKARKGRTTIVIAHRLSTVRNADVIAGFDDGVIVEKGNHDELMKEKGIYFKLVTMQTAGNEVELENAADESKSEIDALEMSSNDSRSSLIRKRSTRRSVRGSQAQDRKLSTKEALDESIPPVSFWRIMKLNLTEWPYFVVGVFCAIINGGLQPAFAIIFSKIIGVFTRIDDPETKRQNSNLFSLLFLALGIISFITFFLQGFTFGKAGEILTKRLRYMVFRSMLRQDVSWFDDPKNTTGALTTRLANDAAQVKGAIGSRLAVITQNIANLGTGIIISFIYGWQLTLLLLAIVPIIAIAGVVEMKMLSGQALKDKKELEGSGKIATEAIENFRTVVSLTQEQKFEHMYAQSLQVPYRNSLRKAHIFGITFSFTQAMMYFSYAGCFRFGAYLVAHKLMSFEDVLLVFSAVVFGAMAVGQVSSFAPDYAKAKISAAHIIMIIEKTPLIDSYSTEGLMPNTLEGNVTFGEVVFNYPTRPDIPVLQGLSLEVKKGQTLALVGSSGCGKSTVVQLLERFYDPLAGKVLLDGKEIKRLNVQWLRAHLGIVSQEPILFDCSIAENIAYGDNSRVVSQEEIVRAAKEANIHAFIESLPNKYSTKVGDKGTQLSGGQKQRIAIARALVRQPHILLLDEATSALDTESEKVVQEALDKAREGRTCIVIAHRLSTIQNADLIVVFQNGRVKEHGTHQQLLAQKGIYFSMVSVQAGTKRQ

[2] = tested on: DU145TXR; test: Cell viability, toxicity of the compounds themselves; type: cell-based; details: absence of chemotherapeutic or very low paclitaxel
Protocol: It should be noted that compounds 541 and 551 were not assessed in these latter experiments.
MTT cell viability assay. Cells were trypsinized from monolayers and seeded with 3000 cells in 150 μL of complete medium in a 96 well plate. After 24 hours, cells were treated for 48 hours with paclitaxel (Acros Organics, NJ) and/or P-gp inhibitory compounds dissolved in DMSO, or DMSO controls. All additions were diluted into complete medium. After 48 hours of treatment, MTT assays were performed as described^41 using 5 mg/mL of MTT (Acros Organics, NJ) solution prepared in PBS (137 mM NaCl, 2.7 mM KCl, 10 mM Na2HPO4, 1.8 mM KH2PO4, pH 7.4). After 4 hours of incubation with MTT, the media was removed and the formazan crystals were dissolved in 100 μL of DMSO. The absorbance at 570 nm was then measured using a BioTek Cytation 5 imaging multi-mode reader (Bio-Tek, Winooski, Vt.). Percent viability was calculated using DMSO treated cells as representative for 100% viability, according to Equation 1. Background absorbance was determined using MTT and complete medium without cells and subtracted from all the test values. Equation 1: […]

[3] = target: T2, cysteineless mouse P-glycoprotein (Mus musculus, UniProt P21447, C1070A/C1121A/C1223A/C133A/C427A/C638A/C669A/C713A/C952A); details: in the presence of 29, from Brewer et al. (2014), cited from earlier work
T2 construct: made in house; host or cells: Pichia pastoris
T2 sequence (P21447 whole entry C133A/C427A/C638A/C669A/C713A/C952A/C1070A/C1121A/C1223A): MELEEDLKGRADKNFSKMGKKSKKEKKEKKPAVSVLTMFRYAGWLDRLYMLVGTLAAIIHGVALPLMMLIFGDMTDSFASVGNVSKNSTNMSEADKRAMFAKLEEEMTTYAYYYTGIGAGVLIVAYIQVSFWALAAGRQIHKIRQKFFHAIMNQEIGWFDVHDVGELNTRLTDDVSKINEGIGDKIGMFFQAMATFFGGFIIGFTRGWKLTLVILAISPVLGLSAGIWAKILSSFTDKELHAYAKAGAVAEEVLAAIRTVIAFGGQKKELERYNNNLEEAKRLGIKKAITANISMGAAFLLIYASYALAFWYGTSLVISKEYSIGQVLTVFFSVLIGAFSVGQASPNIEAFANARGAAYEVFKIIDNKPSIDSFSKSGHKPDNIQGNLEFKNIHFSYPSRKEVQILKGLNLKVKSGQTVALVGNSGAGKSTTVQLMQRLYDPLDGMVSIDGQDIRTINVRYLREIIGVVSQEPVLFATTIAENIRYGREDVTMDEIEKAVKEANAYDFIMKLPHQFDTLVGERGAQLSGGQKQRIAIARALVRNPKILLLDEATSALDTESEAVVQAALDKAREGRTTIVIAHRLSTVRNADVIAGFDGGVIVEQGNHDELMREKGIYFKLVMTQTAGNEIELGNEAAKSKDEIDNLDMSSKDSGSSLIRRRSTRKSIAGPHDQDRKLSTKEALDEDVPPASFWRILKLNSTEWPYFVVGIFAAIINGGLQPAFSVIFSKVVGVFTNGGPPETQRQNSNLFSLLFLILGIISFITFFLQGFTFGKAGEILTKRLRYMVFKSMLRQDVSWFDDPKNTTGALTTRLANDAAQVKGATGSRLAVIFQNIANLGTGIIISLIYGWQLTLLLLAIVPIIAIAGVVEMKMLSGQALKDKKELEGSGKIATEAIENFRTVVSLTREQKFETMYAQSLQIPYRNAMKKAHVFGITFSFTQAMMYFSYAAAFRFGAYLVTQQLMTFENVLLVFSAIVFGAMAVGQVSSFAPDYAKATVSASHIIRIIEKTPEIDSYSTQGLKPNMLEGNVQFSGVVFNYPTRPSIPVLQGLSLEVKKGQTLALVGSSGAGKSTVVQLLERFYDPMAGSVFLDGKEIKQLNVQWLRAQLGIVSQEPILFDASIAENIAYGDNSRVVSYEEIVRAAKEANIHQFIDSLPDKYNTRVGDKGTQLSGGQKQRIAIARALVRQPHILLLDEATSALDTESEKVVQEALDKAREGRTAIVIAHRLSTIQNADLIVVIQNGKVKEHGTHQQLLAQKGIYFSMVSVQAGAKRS

SMILES | Calcein accumulation in DU145TXR (in words) [1] | other results
COc1cc(NC(=O)CSCC(=O)Nc2cc(-c3cc(C)c(C)cc3C)nn2-c2ccccc2)cc(OC)c1OC [29-238, N-[1-phenyl-3-(2,4,5-trimethylphenyl)-1H-pyrazol-5-yl]-2-({[(3,4,5-trimethoxyphenyl)carbamoyl]methyl}sulfanyl)acetamide] | considerably increased calcein accumulation | 
Cc1cc(C)c(-c2cc(NC(=O)CSCC(=O)Nc3ccc4ncsc4c3)n(-c3ccccc3)n2)cc1C [29-255, 2-({[(1,3-benzothiazol-6-yl)carbamoyl]methyl}sulfanyl)-N-[1-phenyl-3-(2,4,5 trimethylphenyl)-1H-pyrazol-5-yl]acetamide] | considerably increased calcein accumulation | 
Cc1cc(C)c(-c2cc(NC(=O)CSCC(=O)NC34CC5CC(CC(C5)C3)C4)n(-c3ccccc3)n2)cc1C [29-278, 2-({[(adamantan-1-yl)carbamoyl]methyl}sulfanyl)-N-[1-phenyl-3-(2,4,5-trimethylphenyl)-1H-pyrazol-5-yl]acetamide] | less calcein accumulation than the parental compound | 
Cc1cc(C)c(-c2cc(NC(=O)CSCC(=O)NC(c3ccccc3)c3ccccc3)n(-c3ccccc3)n2)cc1C [29-280, N-(diphenylmethyl)-2-[({[1-phenyl-3-(2,4,5-trimethylphenyl)-1H-pyrazol-5-yl]carbamoyl)methyl}sulfanyl]acetamide] | less calcein accumulation than the parental compound | Toxicity of the compound to DU145TXR cells [2]: seemed to exhibit some toxicity
Cc1cc(C)c(-c2cc(NC(=O)CSCC(=O)NCc3ccc(F)cc3)n(-c3ccccc3)n2)cc1C [29-286] | comparable to 29 | 
Cc1cc(C)c(-c2cc(NC(=O)CSc3nnc4c(n3)[nH]c3ccccc34)n(-c3ccccc3)n2)cc1C [29-541, 2-((5H-[1,2,4]triazino[5,6-b]indol-3-yl)thio)-N-(1-phenyl-3-(2,4,5-trimethylphenyl)-1H-pyrazol-5-yl)acetamide] |  | Calcein accumulation in DU145TXR (in words) ([1]; listed as 541): performed relatively equally to 29; also recorded: performed similar to the parental compound; Toxicity of the compound to DU145TXR cells [2]: showed some toxicity
Cc1cc(C)c(-c2cc(NC(=O)CSc3cccc(NC(=O)c4cncc(Br)c4)c3)n(-c3ccccc3)n2)cc1C [29-551, 5-bromo-N-(3-((2-oxo-2-((1-phenyl-3-(2,4,5-trimethylphenyl)-1H-pyrazol-5-yl)amino)ethyl)thio)phenyl)nicotinamide] | marginally higher calcein accumulation than parental compound 29 | 
Cc1cc(C)c(-c2cc(NC(=O)CSc3nnc(C4CC4)[nH]3)n(-c3ccccc3)n2)cc1C [compound 29, reference compound] |  | Effect on SL-ANP binding [3]: did not affect the binding; Effect on SL-ANP binding ([3]; listed as SMU29): no
